In US20090306171A1, “INDOLE COMPOUNDS HAVING C4-AMIDE SUBSTITUENTS AND USE THEREOF AS PHOSPHOLIPASE-A2 INHIBITORS” (priority 2005, published 2009):

Assays:
[1] = Example 5A body weight gain, mice on high fat/high sucrose diabetogenic diet; format: in vivo; conditions: for body weight gain compared to the wild-type control group: week 4 and week 10
Method: (§1) ILY-4001 (FIG. 2) was evaluated as a PLA2 IB inhibitor in a set of experiments using wild-type mice and genetically deficient PLA2 (−/−) mice (also referred to herein as PLA2 knock-out (KO) mice). In these experiments, wild-type and PLA2 (−/−) mice were maintained on a high fat/high sucrose diet, details of which are described below.
(§2) Briefly, four groups were set up, each having six mice. Three of the groups included six wild-type PLA2 (+/+) mice in each group (eighteen mice total), and one of the groups included six genetically deficient PLA2 (−/−) mice. One of the wild-type groups was used as a wild-type control group, and was not treated with ILY-4001. The other two wild-type groups were treated with ILY-4001-one group at a lower dose (indicated as “L” in Table 1) of 25 mg/kg/day, and the other at a higher dose (indicated as “H” in Table 1) of 90 mg/kg/day. The group comprising the PLA2 (−/−) mice was used as a positive control group.
(§3) The experimental protocol used in this study was as follows. The four groups of mice, including wild type and isogenic PLA2 (−/−) C57BL/J mice were acclimated for three days on a low fat/low carbohydrate diet After the three day acclimation phase, the animals were fasted overnight and serum samples taken to establish baseline plasma cholesterol, triglyceride, and glucose levels, along with baseline body weight. The mice in each of the treatment groups were then fed a high fat/high sucrose diabetogenic diet (Research Diets D12331). 1000 g of the high fat/high sucrose D12331 diet was composed of casein (228 g), DL-methionine (2 g), maltodextrin 10 (170 g), sucrose (175 g), soybean oil (25 g), hydrogenated coconut oil (333.5 g), mineral mix S10001 (40 g), sodium bicarbonate (10.5 g), potassium citrate (4 g), vitamin mix V10001 (10 g), and choline bitartrate (2 g). This diet was supplemented with ILY-4001 treatments such that the average daily dose of the compound ingested by a 25 g mouse was: 0 mg/kg/day (wild-type control group and PLA2 (−/−) control group); 25 mg/kg/day (low-dose wild-type treatment group), or 90 mg/kg/day (high-dose wild-type treatment group). The animals were maintained on the high fat/high sucrose diet, with the designated ILY-4001 supplementation, for a period of ten weeks.
(§4) Body weight measurements were taken for all animals in all treatment and control groups at the beginning of the treatment period and at 4 weeks and 10 weeks after initiation of the study. (See Example 5A). Blood draws were also taken at the beginning of the treatment period (baseline) and at 4 weeks and 10 weeks after initiation of the study, in order to determine fasting glucose (See Example 5B). Cholesterol and triglyceride levels were determined from blood draws taken at the beginning of the treatment (baseline) and at ten weeks. (See Example 5C).
In the study generally described above in Example 5, body weight measurements were taken for all animals in all treatment and control groups at the beginning of the treatment period and at 4 weeks and 10 weeks after initiation of the study.

[2] = Example 5B fasting serum glucose, mice on high fat/high sucrose diabetogenic diet; format: in vivo; conditions: low dose (25 mg/kg/day)
Method: as §1, §2
The experimental protocol used in this study was as follows. […]
Body weight measurements were taken for all animals in all treatment and control groups at the beginning of the treatment period and at 4 weeks and 10 weeks after initiation of the study. […] Cholesterol and triglyceride levels were determined from blood draws taken at the beginning of the treatment (baseline) and at ten weeks. […]

[3] = Example 6C pharmokinetic study (IV and oral); format: in vivo, mice; conditions: 30 mg/kg oral
Source text: This example characterized ILY-4001 [2-(3-(2-amino-2-oxoacetyl)-1-(biphenyl-2-ylmethyl)-2-methyl-1H-indol-4-yloxy)acetic acid], alternatively referred to herein as methyl indoxam, with respect to activity, as determined by IC50 assay (Example 6A), with respect to cell absorption, as determined by in-vitro Caco-2 assay (Example 6B) and with respect to bioavailability, as determined using in-vivo mice studies (Example 6C).
This example evaluated the bioavailability of ILY-4001 [2-(3-(2-amino-2-oxoacetyl)-1-(biphenyl-2-ylmethyl)-2-methyl-1H-indol-4-yloxy)acetic acid], alternatively referred to herein as methyl indoxam. […]
Bioavailability was calculated as a ratio of AUC-oral/AUC-intravenous (IV). To determine this ratio, a first set of subject animals were given a measured intravenous (IV) dose of ILY-4001, followed by a determination of ILY-4001 levels in the blood at various time points after administration (e.g., 5 minutes through 24 hours). Another second set of animals was similarly dosed using oral administration, with blood levels of ILY-4001 determined at various time points after administration (e.g., 30 minutes through 24 hours). The level of ILY-4001 in systemic circulation were determined by generally accepted methods (for example as described in Evans, G., A Handbook of Bioanalysis and Drug Metabolism. Boca Raton, CRC Press (2004)). […]

human PLA2 IB enzyme = human PLA2 IB enzyme (Homo sapiens, UniProt P04054); conditions: pyrene substrate release from vesicles; Singer, Ghomashchi et al. 2002; read-out: IC50 value versus the human PLA2 IB enzyme; cited from earlier work
Stability at low pH = format: physicochemical
mouse PLA2 IB enzyme = mouse PLA2 IB enzyme (Mus musculus, UniProt Q9Z0Y2); conditions: pyrene substrate release from vesicles; Singer, Ghomashchi et al. 2002; read-out: IC50 value versus the mouse PLA2 IB enzyme; cited from earlier work
Caco-2 monolayers = assay: Example 6B Caco-2 permeability study; format: in vitro ADME, human; conditions: for apparent permeability: apical to basolateral, Caco-2 monolayers
Method: The culture medium was refreshed every 48 hours.
Papp=(dQ/dt)×(1/C0)×(1/A)

[4] = Example 5C serum cholesterol and triglycerides, mice on high fat/high sucrose diabetogenic diet; format: in vivo; conditions: 10 weeks
Method: as §1, §2, §3
as §4, with “(See Example 5C).” left out

Chain of human PLA2 IB enzyme (P04054 23-148): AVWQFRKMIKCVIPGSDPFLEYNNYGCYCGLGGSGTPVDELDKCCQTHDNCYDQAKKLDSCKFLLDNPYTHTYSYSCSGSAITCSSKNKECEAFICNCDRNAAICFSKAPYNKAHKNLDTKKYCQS
Chain of mouse PLA2 IB enzyme (Q9Z0Y2 23-146): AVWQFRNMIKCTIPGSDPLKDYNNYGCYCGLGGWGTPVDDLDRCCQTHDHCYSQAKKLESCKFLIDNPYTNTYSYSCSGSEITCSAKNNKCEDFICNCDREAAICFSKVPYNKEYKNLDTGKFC

Row | Compound | body weight gain compared to the wild-type control group ([1]; 25 mg/kg/d in diet) | body weight gain, extent of modulation relative to PLA2 (−/−) mice ([1]; 25 mg/kg/d, four weeks) | body weight gain compared to the wild-type control group ([1]; 90 mg/kg/d in diet) | body weight gain, extent of modulation relative to PLA2 (−/−) mice ([1]; 90 mg/kg/d, four weeks) | body weight gain, extent of modulation relative to PLA2 (−/−) mice ([1]; low-dose (25 mg/kg/d), ten weeks) | fasting glucose levels ([2]; week four) | fasting glucose levels ([2]; week ten) | level of non-absorption from the GI tract into systemic circulation [3] | IC50 (human PLA2 IB enzyme) | stability at low pH (Stability at low pH) | IC50 (mouse PLA2 IB enzyme) | apparent permeability (Caco-2 monolayers) | absorption from the GI lumen (Caco-2 monolayers; based on Caco-2 assays and pharmokinetic studies) | plasma levels of cholesterol ([4]; high dose (90 mg/kg/day)) | plasma levels of triglycerides ([4]; high dose (90 mg/kg/day)) | plasma levels of cholesterol ([4]; low dose (25 mg/kg/day)) | plasma levels of triglycerides ([4]; low dose (25 mg/kg/day))
1 | Cc1c(C(=O)C(N)=O)c2c(OCC(=O)O)cccc2n1Cc1ccccc1-c1ccccc1 [ILY-4001, 2-(3-(2-amino-2-oxoacetyl)-1-(biphenyl-2-ylmethyl)-2-methyl-1H-indol-4-yloxy)acetic acid] | significantly reduced body weight gains | approaching that achieved in the PLA2 (−/−) mice | significantly reduced body weight gains | approaching that achieved in the PLA2 (−/−) mice | comparable to that achieved in the PLA2 (−/−) mice | moderately beneficial effect | a beneficial effect was not observed | ~72% | ~200 nM | stable at low pH | ~150 nM | around 1.66×10^−7 cm/s | relatively low absorption | substantially reduced | substantially reduced | substantially reduced | substantially reduced
2 | Lucifer Yellow |  |  |  |  |  |  |  |  |  |  |  | around 2.82×10^−7+/−0.37×10^−7 cm/s |  |  |  |  | 
